This note sets out measurements from US12029762B2, “Alkalized organic pharmaceutical or nutraceutical composition” (priority 2009, dated 2024).

This experiment in a line: Strength, stamina and endurance of a training test subject. Type of experiment: in vivo, human. On the procedure: Test subject was administered L-Glutamine HCl (pH 6.0) for 30 days.
Training was three days per week, with 3 days of cardio. Dosage was 500 mg per day the first week and 1000 mg per day for week 2-4.
Test subject was taken off the glutamine HCl (pH 6.0) and administered buffered-Glutamine (pH 12.0) for 30 days. Training was three days per week, with 3 days of cardio. Dosage was 500 mg per day for the 5th week and 1000 mg per day for weeks 6-8.

`Cl.NC(=O)CC[C@H](N)C(=O)O` [L-Glutamine HCl]: the “changes to strength, stamina or endurance (in words)” value (Week 1, 500 mg per day) is listed as “No noticeable changes” and the “changes to strength, stamina or endurance (in words)” value (Week 2-4, 1000 mg per day) was “No noticeable changes”.
